Test results reported in US20260015344A1, “PAN-KRAS INHIBITORS” (Mirati Therapeutics, Inc., priority 2022, published 2026).

How the values were obtained:
KRas^G13D = target: T1, KRas^G13D (Homo sapiens, UniProt P01116, G13D); assay: KRas Binding Assay (TR-FRET displacement), KRas G13D; details: TR-FRET tracer displacement
T1 construct: corresponding to amino acids 1-169, produced at Accelegan Inc; biotin (biotinylated); purchased Accelegan Inc
Protocol: (§1) This Example illustrates that exemplary compounds of the present invention bind to KRas and are capable of displacing a labeled tracer ligand occupying the KRas binding site. KRas^WT, KRas^G12A, KRas^G12C, KRas^G12D, KRas^G12R, KRas^G12S, KRas^G12V, KRas^G13D, or KRas^Q61H was used in the assay.
(§2) The ability of a compound to bind to KRas was measured using a TR-FRET displacement assay. Biotinylated KRas (corresponding to amino acids 1-169, produced at Accelegan Inc.) was incubated with custom made Cy5 labelled tracer, terbium streptavidin (Cisbio Inc.) and compound (1% DMSO final) in buffer (50 mM HEPES, pH 7.5, 5 mM MgCl2, 0.005% Tween-20 and 1 mM DTT). After a 60-minute incubation at room temperature, the reaction was measured using a BMG LABTECH CLARIO star Plus via TR-FRET. […] The POC values were fit to a 4-parameter IC50 equation and the IC50 value reported.

KRas^Q61H = target: T2, KRas^Q61H (Homo sapiens, UniProt P01116, Q61H); assay: KRas Binding Assay (TR-FRET displacement), KRas Q61H; details: TR-FRET tracer displacement
T2 construct: corresponding to amino acids 1-169, produced at Accelegan Inc; biotin (biotinylated); purchased Accelegan Inc
T2 sequence (P01116 1-169 isoform P01116-2 Q61H): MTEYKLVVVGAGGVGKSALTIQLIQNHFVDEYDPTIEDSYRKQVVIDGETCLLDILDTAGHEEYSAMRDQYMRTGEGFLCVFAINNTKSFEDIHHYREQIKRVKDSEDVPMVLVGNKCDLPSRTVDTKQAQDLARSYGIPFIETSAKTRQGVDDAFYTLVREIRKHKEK
Protocol: as §1, §2

KRas^G12V = target: T3, KRas^G12V (Homo sapiens, UniProt P01116, G12V); assay: KRas Binding Assay (TR-FRET displacement), KRas G12V; details: TR-FRET tracer displacement
T3 construct: corresponding to amino acids 1-169, produced at Accelegan Inc; biotin (biotinylated); purchased Accelegan Inc
T3 sequence (P01116 1-169 isoform P01116-2 G12V): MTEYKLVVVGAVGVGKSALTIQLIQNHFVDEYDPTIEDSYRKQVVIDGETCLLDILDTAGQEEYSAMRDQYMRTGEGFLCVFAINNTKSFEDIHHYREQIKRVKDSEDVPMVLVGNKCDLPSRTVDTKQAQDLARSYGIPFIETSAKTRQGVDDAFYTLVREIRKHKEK
Protocol: as §1, §2

KRas^G12R = target: T4, KRas^G12R (Homo sapiens, UniProt P01116, G12R); assay: KRas Binding Assay (TR-FRET displacement), KRas G12R; details: TR-FRET tracer displacement
T4 construct: corresponding to amino acids 1-169, produced at Accelegan Inc; biotin (biotinylated); purchased Accelegan Inc
T4 sequence (P01116 1-169 isoform P01116-2 G12R): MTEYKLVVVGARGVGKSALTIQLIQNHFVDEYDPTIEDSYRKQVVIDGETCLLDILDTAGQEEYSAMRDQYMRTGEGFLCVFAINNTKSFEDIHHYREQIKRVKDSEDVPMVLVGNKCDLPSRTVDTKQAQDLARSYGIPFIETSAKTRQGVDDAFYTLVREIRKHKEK
Protocol: as §1, §2

KRas^G12A = target: T5, KRas^G12A (Homo sapiens, UniProt P01116, G12A); assay: KRas Binding Assay (TR-FRET displacement), KRas G12A; details: TR-FRET tracer displacement
T5 construct: corresponding to amino acids 1-169, produced at Accelegan Inc; biotin (biotinylated); purchased Accelegan Inc
T5 sequence (P01116 1-169 isoform P01116-2 G12A): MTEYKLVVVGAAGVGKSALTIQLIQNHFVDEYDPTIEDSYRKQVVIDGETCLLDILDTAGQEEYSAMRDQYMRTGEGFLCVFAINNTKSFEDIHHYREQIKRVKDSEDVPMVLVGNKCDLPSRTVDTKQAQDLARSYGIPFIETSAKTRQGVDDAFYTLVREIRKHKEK
Protocol: as §1, §2

KRas^G12D = target: T6, KRas^G12D (Homo sapiens, UniProt P01116, G12D); assay: KRas Binding Assay (TR-FRET displacement), KRas G12D; details: TR-FRET tracer displacement
T6 construct: corresponding to amino acids 1-169, produced at Accelegan Inc; biotin (biotinylated); purchased Accelegan Inc
T6 sequence (P01116 1-169 isoform P01116-2 G12D): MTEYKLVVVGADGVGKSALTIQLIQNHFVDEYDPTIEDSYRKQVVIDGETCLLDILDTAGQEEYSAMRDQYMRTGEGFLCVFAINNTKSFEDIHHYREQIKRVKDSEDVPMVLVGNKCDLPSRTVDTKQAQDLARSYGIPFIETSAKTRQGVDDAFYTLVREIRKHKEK
Protocol: as §1, §2

[1] = system: KRas-mediated Phosphorylation of ERK in H727 cells; assay: HTRF pERK assay, H727 cells; assay type: cell-based; details: Homo sapiens, NCI-H727, 3 hrs compound incubation, read-out: Inhibition (HTRF IC50 nM) of KRas-mediated Phosphorylation of ERK, H727
Protocol: (§3) • Day 1: Seed 6,000 cells/well-25 μl/well in 384-well white solid bottom plate; RPM1_10% FBS.
(§4) • 1. To harvest cells from flask using 0.05% Trypsin/EDTA solution. Add 10 mL of media to stop trypsinizing. Pipette the cells into a conical bottom 50 mL centrifuge tube and centrifuge 5 min×1000 rpm. • 2. Re-suspend the cell pellet in media, take a cell count, and then adjust the cell density using fresh media. • 3. Seed 6,000 cells into cell culture plate with 50 μL media. The • 4. Incubate cell plate overnight in a 37° C., 5% CO2 incubator.
(§5) • 1. Use Tecan to complete the compound addition. Compounds start from 10 uM top, 3-fold dilution, and 10 doses. The final DMSO concentration is 0.8%. Dispensed 0.2 uM Trametinib as Min control. • 2. Incubate cell plate for 3 hrs in the incubator. Detection with Cisbio pERK HTRF Kit • 1. Dilute 1 volume of 4× lysis buffer with 3 volumes of deionized water. Then, add 100× the blocking reagent. Keep lysis buffer on the ice. • 2. At the end of the compound treatment, flick-off the media. • 3. Add 35 μL of lysis buffer per well using a Multidrop Combi. Then place on a plate agitator shaking at 300 rpm at 4° C. for 40 mins. • 4. Make up the HTRF antibody buffer. For each assay plate, mix 50 μL of d2-conjugate antibody with 950 μL of detection buffer. Similarly, mix 50 μL of Cryptate antibody with 950 μL of detection buffer. Then mix the two diluted antibodies together. • 5. Dispense 3.4 μL the antibody buffer to wells of an empty assay plate. Seal the plate and centrifuge plate 30 sec×1000 rpm. • 6. At the end of the 4° C. lysis, centrifuge the lysate plates 3 mins×1500 rpm. • 7. Use the Bravo to transfer 13.6 μL of lysate from cell culture plate to assay plate. Then incubate assay plate for 2 hrs at room temperature. • 8. At the end of incubation, read plate on the Envision after centrifuging plate 30 sec×1000 rpm.

[2] = system: KRas-mediated Phosphorylation of ERK in AsPC-1 cells; assay: HTRF pERK assay, AsPC-1 cells; assay type: cell-based; details: Homo sapiens, ASPC1, 3 hrs compound incubation, read-out: Inhibition (HTRF IC50 nM) of KRas-mediated Phosphorylation of ERK, AsPC-1
Protocol: as §3, §4, §5

[3] = system: KRas-mediated Phosphorylation of ERK in MKN1 cells; assay: HTRF pERK assay, MKN1 cells; assay type: cell-based; details: Homo sapiens, MKN-1, 3 hour compound incubation, read-out: Inhibition (HTRF IC50 nM) of KRas-mediated Phosphorylation of ERK, MKN1
Protocol: Cisbio HTRF Advanced pERK Assay Catalog #64AERPEH • Cells: MKN1, PSN1
as §3

KRas^G12S = target: T7, KRas^G12S (Homo sapiens, UniProt P01116, G12S); assay: KRas Binding Assay (TR-FRET displacement), KRas G12S; details: TR-FRET tracer displacement
T7 construct: corresponding to amino acids 1-169, produced at Accelegan Inc; biotin (biotinylated); purchased Accelegan Inc
T7 sequence (P01116 1-169 isoform P01116-2 G12S): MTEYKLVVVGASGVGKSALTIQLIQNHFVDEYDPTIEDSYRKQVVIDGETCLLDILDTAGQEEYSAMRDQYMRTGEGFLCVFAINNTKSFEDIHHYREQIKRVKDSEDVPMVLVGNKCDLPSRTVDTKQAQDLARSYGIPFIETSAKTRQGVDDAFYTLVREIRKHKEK
Protocol: as §1, §2

[4] = system: KRas-mediated Phosphorylation of ERK in H2009 cells; assay: HTRF pERK assay, H2009 cells; assay type: cell-based; details: Homo sapiens, NCI-H2009; H2009 cells by column count (c8); may be PSN1; read-out: Inhibition (HTRF IC50 nM) of KRas-mediated Phosphorylation of ERK, H2009
KRas^WT = target: T8, KRas^WT (Homo sapiens, UniProt P01116); assay: KRas Binding Assay (TR-FRET displacement), KRas WT; details: TR-FRET tracer displacement
T8 construct: corresponding to amino acids 1-169, produced at Accelegan Inc; biotin (biotinylated); purchased Accelegan Inc
T8 sequence (P01116 1-169 isoform P01116-2): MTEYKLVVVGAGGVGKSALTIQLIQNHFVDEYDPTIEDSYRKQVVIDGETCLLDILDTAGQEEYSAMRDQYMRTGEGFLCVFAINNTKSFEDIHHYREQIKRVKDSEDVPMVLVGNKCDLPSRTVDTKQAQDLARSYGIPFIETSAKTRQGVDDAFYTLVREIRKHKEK
Protocol: as §1, §2

KRas^G12C = target: T9, KRas^G12C (Homo sapiens, UniProt P01116, G12C); assay: KRas Binding Assay (TR-FRET displacement), KRas G12C; details: TR-FRET tracer displacement
T9 construct: corresponding to amino acids 1-169, produced at Accelegan Inc; biotin (biotinylated); purchased Accelegan Inc
T9 sequence (P01116 1-169 isoform P01116-2 G12C): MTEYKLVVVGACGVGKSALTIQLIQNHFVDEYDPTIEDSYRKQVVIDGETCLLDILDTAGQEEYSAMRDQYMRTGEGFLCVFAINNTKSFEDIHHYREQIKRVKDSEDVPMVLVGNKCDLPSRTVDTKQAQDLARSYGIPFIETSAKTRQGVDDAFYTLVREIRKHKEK
Protocol: as §1, §2

[5] = system: KRas-mediated Phosphorylation of ERK in H460 cells; assay: HTRF pERK assay, H460 cells; assay type: cell-based; details: Homo sapiens, NCI-H460, 3 hrs compound incubation, read-out: Inhibition (HTRF IC50 nM) of KRas-mediated Phosphorylation of ERK, H460
Protocol: as §3, §4
as §5, with “Similarly, mix 50 μL of Cryptate antibody with 950 μL of detection buffer. Then mix the two diluted antibodies together. • 5. Dispense 3.4 μL the antibody buffer to wells of an empty assay plate. Seal the plate and centrifuge plate 30 sec×1000 rpm. • 6. At the end of the 4° C. lysis, centrifuge the lysate plates 3 mins×1500 rpm. • 7. Use the Bravo to transfer 13.6 μL of lysate from cell culture plate to assay plate. Then incubate assay plate for 2 hrs at room temperature. • 8.” left out

[6] = system: KRas-mediated Phosphorylation of ERK in H358 cells; assay: HTRF pERK assay, H358 cells; assay type: cell-based; details: Homo sapiens, NCI-H358, 3 hrs compound incubation, read-out: Inhibition (HTRF IC50 nM) of KRas-mediated Phosphorylation of ERK, H358
Protocol: as §3, §4
as §5, with “Similarly, mix 50 μL of Cryptate antibody with 950 μL of detection buffer. Then mix the two diluted antibodies together. • 5. Dispense 3.4 μL the antibody buffer to wells of an empty assay plate. Seal the plate and centrifuge plate 30 sec×1000 rpm. • 6. At the end of the 4° C. lysis, centrifuge the lysate plates 3 mins×1500 rpm. • 7. Use the Bravo to transfer 13.6 μL of lysate from cell culture plate to assay plate. Then incubate assay plate for 2 hrs at room temperature. • 8.” left out

[7] = system: KRas-mediated Phosphorylation of ERK in A549 cells; assay: HTRF pERK assay, A549 cells; assay type: cell-based; details: Homo sapiens, 3 hrs compound incubation, read-out: Inhibition (HTRF IC50 nM) of KRas-mediated Phosphorylation of ERK, A549
Protocol: as §3, §4
as §5, with “Similarly, mix 50 μL of Cryptate antibody with 950 μL of detection buffer. Then mix the two diluted antibodies together. • 5. Dispense 3.4 μL the antibody buffer to wells of an empty assay plate. Seal the plate and centrifuge plate 30 sec×1000 rpm. • 6. At the end of the 4° C. lysis, centrifuge the lysate plates 3 mins×1500 rpm. • 7. Use the Bravo to transfer 13.6 μL of lysate from cell culture plate to assay plate. Then incubate assay plate for 2 hrs at room temperature. • 8.” left out

[8] = system: KRas-mediated Phosphorylation of ERK in HCT116 cells; assay: HTRF pERK assay, HCT116 cells; assay type: cell-based; details: Homo sapiens, HCT-116, 3 hrs compound incubation, read-out: Inhibition (HTRF IC50 nM) of KRas-mediated Phosphorylation of ERK, HCT116
Protocol: as §3, §4
as §5, with “Similarly, mix 50 μL of Cryptate antibody with 950 μL of detection buffer. Then mix the two diluted antibodies together. • 5. Dispense 3.4 μL the antibody buffer to wells of an empty assay plate. Seal the plate and centrifuge plate 30 sec×1000 rpm. • 6. At the end of the 4° C. lysis, centrifuge the lysate plates 3 mins×1500 rpm. • 7. Use the Bravo to transfer 13.6 μL of lysate from cell culture plate to assay plate. Then incubate assay plate for 2 hrs at room temperature. • 8.” left out

T1 sequence (P01116 1-169 isoform P01116-2 G13D): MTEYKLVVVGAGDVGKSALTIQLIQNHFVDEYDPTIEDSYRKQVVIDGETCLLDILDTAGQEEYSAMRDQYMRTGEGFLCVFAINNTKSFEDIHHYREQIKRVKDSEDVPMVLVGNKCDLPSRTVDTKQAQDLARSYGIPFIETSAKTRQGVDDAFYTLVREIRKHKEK

IC50 (KRas^G13D) [nM]	IC50 (KRas^Q61H) [nM]	IC50 (KRas^G12V) [nM]	IC50 (KRas^G12R) [nM]	IC50 (KRas^G12A) [nM]	IC50 (KRas^G12D) [nM]	IC50 [1] [nM]	IC50 [2] [nM]	IC50 [3] [nM]	IC50 (KRas^G12S) [nM]	IC50 [4] [nM]	IC50 (KRas^WT) [nM]	IC50 (KRas^G12C) [nM]	IC50 [5] [nM]	IC50 [6] [nM]	IC50 [7] [nM]	IC50 [8] [nM]	Structure (SMILES)
74	117	43	28	82	42	6440	3740	593	90	> 10000	22	106					C[C@H](Oc1nc(-c2noc(C3(C)CCCc4sc(N)c(C#N)c43)n2)cc(N2CCC[C@@](C)(O)C2)n1)[C@@H]1CCCN1C (stereo partly drawn) [Example 1, 2-amino-4-(3-(6-((R)-3-hydroxy-3-methylpiperidin-1-yl)-2-((S)-1-((S)-1-methylpyrrolidin-2-yl)ethoxy)pyrimidin-4-yl)-1,2,4-oxadiazol-5-yl)-4-methyl-4,5,6,7-tetrahydrobenzo[b]thiophene-3-carbonitrile]
24	9	4	< 2	35	3	3900	898	10	25	9300	31	15	288	216	727	962	C[C@H](Oc1nc(-c2cc(C3(C)CCCc4sc(N)c(C#N)c43)sn2)cc(N2CCCC3(CNS(=O)(=O)N3)C2)n1)[C@@H]1CCCN1C (stereo partly drawn) [Example 10, 2-amino-4-(3-(6-(2,2-dioxido-2-thia-1,3,7-triazaspiro[4.5]decan-7-yl)-2-((S)-1-((S)-1-methylpyrrolidin-2-yl)ethoxy)pyrimidin-4-yl)isothiazol-5-yl)-4-methyl-4,5,6,7-tetrahydrobenzo[b]thiophene-3-carbonitrile]
		6	4		11	469	507	44		> 10000			394	43	689	899	C[C@H](Oc1nc(-c2noc(C3(C)CCCc4sc(N)c(C#N)c43)n2)cc(N2CCOCC(C)(O)C2)n1)[C@@H]1CCCN1C (stereo partly drawn) [Example 13, 2-amino-4-(3-(6-(6-hydroxy-6-methyl-1,4-oxazepan-4-yl)-2-((S)-1-((S)-1-methylpyrrolidin-2-yl)ethoxy)pyrimidin-4-yl)-1,2,4-oxadiazol-5-yl)-4-methyl-4,5,6,7-tetrahydrobenzo[b]thiophene-3-carbonitrile]

Structure (SMILES)	IC50 (KRas^G13D) [nM]	IC50 (KRas^Q61H) [nM]	IC50 (KRas^G12V) [nM]	IC50 (KRas^G12R) [nM]	IC50 (KRas^G12A) [nM]	IC50 (KRas^G12D) [nM]	IC50 [1] [nM]	IC50 [2] [nM]	IC50 [3] [nM]	IC50 (KRas^G12S) [nM]	IC50 [4] [nM]	IC50 (KRas^WT) [nM]	IC50 (KRas^G12C) [nM]	IC50 [5] [nM]	IC50 [6] [nM]	IC50 [7] [nM]	IC50 [8] [nM]
C[C@H](Oc1nc(-c2noc(C3(C)CCCc4sc(N)c(C#N)c43)n2)cc(N2C[C@H]3CC[C@@H](C2)N3)n1)[C@@H]1CCCN1C (stereo partly drawn) [Example 3, 4-(3-(6-((1R,5S)-3,8-diazabicyclo[3.2.1]octan-3-yl)-2-((S)-1-((S)-1-methylpyrrolidin-2-yl)ethoxy)pyrimidin-4-yl)-1,2,4-oxadiazol-5-yl)-2-amino-4-methyl-4,5,6,7-tetrahydrobenzo[b]thiophene-3-carbonitrile]	315	656	767	728	879	18	> 10000	5940	> 10000	912	> 10000	195	1060				
